# Earlier results as cited in patent publication US8343565B2, “Method for producing grape extract with high ORAC value and grape extract so produced” (Ethical Naturals, Inc., priority 2008, dated 2013).
# Conditions: exemplary ORAC scores listed in the background
row,Compound,ORAC scores for common vegetables and fruits
1,vitamin E,"1,200 μmol TE/g"
2,O=C1O[C@H]([C@@H](O)CO)C(O)=C1O [vitamin C],"5,000 μmol TE/g"
